Measurements taken from patent US20210379035A1, “Methods Of Treating Fabry Patients Having Renal Impairment” (Amicus Therapeutics, Inc., priority 2017, published 2021).

Test system: Fabry patients
Assay: Long-term analysis of 12 patients that completed multiple studies: eGFR
Format: in vivo, human
Conditions: 11 patients who received migalastat HCl 150 mg QOD for ≥17 months (mean exposure, 4-5 years)
Description: In addition to the studies described above, other patients also received migalastat therapy in other studies such as dose-finding studies and/or long-term extension studies. […] 12 patients that completed multiple studies were further analyzed. Linear regression was used to calculate the annualized rate of change in […] from baseline.

Compound: Cl.OC[C@H]1NC[C@H](O)[C@@H](O)[C@H]1O [migalastat HCl, migalastat hydrochloride]
- annualized mean change in eGFRCKD-EPI: 0.24 mL/min/1.72 m^2
